Experimental data published in patent US8293706B2, “Method for inhibiting release of hepatitis B virus from liver cells” (priority 2008, dated 2012).
pEC50: −log10 of the molar value. Read-outs that look alike come from different tables or passages of the source.

Assays:
HBV WT = test: HBVDR assay, strain WT; assay type: cell-based; conditions: assay type HBVDR
HBV L180M = test: HBVDR assay, strain L180M; assay type: cell-based
HBV M204V = test: HBVDR assay, strain M204V; assay type: cell-based
HBV M204I = test: HBVDR assay, strain M204I; assay type: cell-based
HBV LM/MV = test: HBVDR assay, strain LM/MV; assay type: cell-based
HBV N236T = test: HBVDR assay, strain N236T; assay type: cell-based
HBV = test: Inhibition of HBV release from 2.2.15 cells (HBV virion DNA in culture medium, quantitative blot hybridization); assay type: cell-based; conditions: for SI: S.I. (CC50/EC90)
Protocol: (§1) The ability of sLDLR to inhibit pathogenic viruses was tested by the NIAID Antimicrobial Acquisition and Coordinating Facility (AACF). Confluent cultures of 2.2.15 cells (HBV-infected human HepG2 hepatocellular carcinoma cells (ATCC HB-8065), constitutively shedding HBV virions) were maintained on 96-well flat-bottomed tissue culture plates in RPMI1640 medium with 2% fetal bovine serum (Korba & Gerin, Antivir. Res. 19:55-70, 1992). Cultures (6 per each of 4 test concentrations on two replicate plates) were treated with 9 consecutive daily doses of sLDL compounds. Medium was changed daily with fresh test compounds. HBV virion DNA in the culture medium was assessed 24 hours after the last treatment by quantitative blot hybridization. Uptake of neutral red dye (absorbance of internalized dye at […] [A510]) wa used to determine the relative level of toxicity 24 hours following the last treatment (Korba & Gerin, Antivir. Res. 19:55-70, 1992). Values are presented as a percentage of the average A510 values for 9 separate cultures of untreated cells maintained on the same plate. Cultures for the toxicity analyses were seeded at the same time with the identical pool of stock cells used for the antiviral analyses and maintained in an identical manner. A total of 3 cultures were treated with each concentration of test compound. […] CC50, EC50, EC90, and S.I. (CC50/EC90) were calculated. Lamivudine (3TC) was used as a positive assay control.

[1] = Neutral red dye uptake toxicity in 2.2.15 cells; assay type: cell-based, human; conditions: human, neutral red uptake (A510) 24 hours after last of 9 daily treatments, positive assay control
Protocol: as §1, with “Lamivudine (3TC) was used as a positive assay control.” left out

[2] = tested on: 2.2.15 cells (HBV-infected human HepG2 hepatocellular carcinoma cells); test: Neutral red dye uptake toxicity in 2.2.15 cells; assay type: cell-based; conditions: neutral red uptake (A510) 24 hours after last of 9 daily treatments
Protocol: as §1, with “Lamivudine (3TC) was used as a positive assay control.” left out

[3] = tested on: lamivudine as well as adefovir dipovoxil resistant mutants (HBV); test: HBVDR assay, panel of resistant mutants; assay type: cell-based; conditions: all tested resistant mutants
[4] = HBV strain L180M, assay type HBVDR, read-out: EC50
[5] = HBV strain L180M, assay type HBVDR, read-out: EC90
[6] = HBV strain M204V, assay type HBVDR, read-out: EC50
[7] = HBV strain M204V, assay type HBVDR, read-out: EC90
[8] = HBV strain M204I, assay type HBVDR, read-out: EC50
[9] = HBV strain M204I, assay type HBVDR, read-out: EC90
[10] = HBV strain LM/MV, assay type HBVDR, read-out: EC50
[11] = HBV strain LM/MV, assay type HBVDR, read-out: EC90
[12] = HBV strain N236T, assay type HBVDR, read-out: EC50
[13] = HBV strain N236T, assay type HBVDR, read-out: EC90
[14] = HBV virion DNA in culture medium 24 hours after last of 9 consecutive daily doses, 2.2.15 cells

| Molecule | pEC50 (HBV WT) | EC90 (HBV WT) [µM] | pEC50 (HBV L180M; [4]) | EC90 (HBV L180M; [5]) [µM] | pEC50 (HBV M204V; [6]) | EC90 (HBV M204V; [7]) [µM] | pEC50 (HBV M204I; [8]) | EC90 (HBV M204I; [9]) [µM] | pEC50 (HBV LM/MV; [10]) | EC90 (HBV LM/MV; [11]) [µM] | pEC50 (HBV N236T; [12]) | EC90 (HBV N236T; [13]) [µM] | other results |
| --- | --- | --- | --- | --- | --- | --- | --- | --- | --- | --- | --- | --- | --- |
| CC(C)(C)C(=O)OCOP(=O)(COCCn1cnc2c(N)ncnc21)OCOC(=O)C(C)(C)C [ADV, Adefovir Dipovoxil] | 5.82 | 6.5 | 5.72 | 8.5 | 5.74 | 7 | 5.89 | 7.2 | 5.89 | 7.8 | 5.09 | 32 |  |
| Nc1ccn([C@@H]2CS[C@H](CO)O2)c(=O)n1 [Lamivudine] |  |  |  |  |  |  |  |  |  |  |  |  | pEC50 (HBV; Hepatitis B virus, 24 h): 7.35; EC90 (HBV; Hepatitis B virus, 24 h): 0.146 µM; SI (HBV; Lamivudine columns): 15178; CC50 [1]: 2310 µM; pEC50 (HBV WT; Hepatitis B virus): 6.70; EC90 (HBV WT; Hepatitis B virus): 0.7 µM; pEC50 (HBV L180M; Hepatitis B virus): 5.28; EC90 (HBV L180M; Hepatitis B virus): 20 µM; pEC50 (HBV M204V; Hepatitis B virus): < 4.00; EC90 (HBV M204V; Hepatitis B virus): > 100 µM; pEC50 (HBV M204I; Hepatitis B virus): < 4.00; EC90 (HBV M204I; Hepatitis B virus): > 100 µM; pEC50 (HBV LM/MV; Hepatitis B virus): < 4.00; EC90 (HBV LM/MV; Hepatitis B virus): > 100 µM; pEC50 (HBV N236T; Hepatitis B virus): 6.70; EC90 (HBV N236T; Hepatitis B virus): 0.6 µM |
| sLDLR | 6.05 | 6 | 6.10 | 6.3 | 6.00 | 6.5 | 5.96 | 8 | 5.92 | 7.5 | 6.00 | 8.2 | inhibition of formation of HBV virion from virus-infected cells relative to toxicity (HBV; 2.2.15 cells): inhibited the formation of HBV virion from virus-infected cells at concentrations far below toxicity; EC50 (HBV; [14]): 0.131 µg/mL; EC90 (HBV; [14]): 0.922 µg/mL; SI (HBV; sLDLR columns): >11; CC50 [2]: >10 µg/mL; activity against lamivudine and adefovir dipovoxil resistant mutants [3]: active against all tested lamivudine as well as adefovir dipovoxil resistant mutants |
